Test results published in patent US20080175889A1, “METHOD AND COMPOSITION FOR COATING WOUNDS AND PROTECTING SKIN USING A POLYETHER POLYURETHANE SOLUTION” (priority 2007, published 2008).

Experiments:
animal's tissue = settings: solvent alone or containing dissolved PEPU polymer; compared to THF
[1] = cited from earlier work
rat = settings: cited from earlier work
[2] = TWA; cited from earlier work
[3] = published literature; cited from earlier work

CC1CCCO1 (stereo not shown) [2-MeOX, 2-methyloxolane]
penetration into an animal's tissue after applying the solvent onto the skin (animal's tissue): much less 2-MeOX compared to THF solvent can penetrate | amount of solvent that can dissolve in water [1]: approximately 14 % by weight | amount of water that can dissolve in the solvent ([1]; water in solvent): 4% | LD-50 (rat; rat model, reported for both skin contact and inhalation): approximately 6 g/kg

C1CCOC1 [THF, tetrahydrofuran]
OSHA Permissible Exposure Limit and NIOSH Recommended Exposure limit [2]: 200 ppm | amount of solvent that can dissolve in water [1]: miscible, in all proportions | LD-50 (rats) (rat; rats): 890 mg/kg | carcinogenicity / teratogenicity [3]: not considered a carcinogen or a teratogen | genotoxicity [3]: nor is it genotoxic | skin irritation [3]: skin irritant
